Laboratory results published in US5242915A, “Formulation useful for the inhibition of massive release of cerebral glutamate” (Shionogi & Co., Ltd., priority 1991, dated 1993).
“Also recorded” adds a separate entry of the source. Like-named read-outs stand apart in the source and are kept apart here.

How the values were obtained:
[1] = tested on: DBA/2 Mouse; test: Ultrasonically (sound)-induced convulsion in DBA/2 mouse; type: in vivo, mouse (DBA/2); settings: for anticonvulsive effect (general statement): FIG. 3 and Table 1; for ED50: Mus musculus, one hour before ultrasonic treatment (70-90 db, 1 min), probit method, read-out: ED50 (anti-convulsant effect); for anti-convulsant effect, in words: sound/ultrasonically induced convulsion
Text: Animal: Ten mice consisting of five each of male and female DBA/2 mice (weighing from 7 to 11 g) bred at the Aburahi Laboratories (Shionogi) at three weeks of age were used in a group.
One hour before the ultrasonic treatment, each mouse of test group orally received S-312-d as a solution in polyethylene glycol 400. To each mouse of control groups was orally administered either of Nicardipine, as a solution in polyethylene glycol 400, S-312-1, Nimodipine or Flunarizine, as a suspension in gum arabic. Convulsion was induced in mouse by an ultrasonic treatment (70-90 db, 1 min) and the number of tetanic death was observed. ED50 value of anti-convulsant effect of each compound was calculated by probit method using the […] as an indication.

[2] = tested on: cerebral release of glutamate; settings: comparison, no data shown, cited from earlier work
[3] = NMDA channel antagonist; cited from earlier work
[4] = tested on: massive release of cerebral glutamate in hippocampal CAI region; test: Effect on the ischemic release of glutamate in hippocampal CAI region (BCAO, microdialysis); type: in vivo, rat (SHRSP, stroke-prone spontaneously Hypertensive Rats); settings: intraduodenal, 40 min before BCAO, S-312-d 0.3 mg/kg; for inhibition of the massive release of glutamate during BCAO: nilvadipine 3 mg/kg, nimodipine 3 mg/kg, FIG. 2
Text: Thus, an experimental cerebral ischemia was caused in SHRSPs by the occlusion of both common carotid arteries (hereinafter, referred to as BCAO). During the ischemic period, a massive release of glutamate in hippocampal CAI region was observed (see, FIG. 1).
Reference compound: nilvadipine, and nimodipine Animal: Five male SHRSP bred at the Aburahi Laboratories (Shionogi) at ten to twelve weeks of age were used in a group. Animals were fed CA-1 (Nihon Clea) and tap water ad libitum.
Hippocampus CAI region was made ischemia by the occlusion of both common carotid arteries (BCAO) into rats as follows:
Rats were anesthetized with halothane (3%) and the cervical region proximal to abdomen was incised to expose the common carotid arteries. Both arteries were occluded with nylon threads with each end exposed at the back of the neck through either of two holes of a tube (double lumen PE tube, Natsume Seisakusho, & Co.). Occlusion was induced in the both common carotid arteries by pulling strongly each exposed end of threads. BCAO was stopped by gradually pulling down the each end of threads passed under arteries proximal to abdomen. During the ischemic period, the halothane inhalation was stopped.
The determination of the regional cerebral blood flow was conducted using a laser doppler tissue flow meter (LFA-2, Biomedical Science, Japan) with a needle-type sensor (450 μm in diameter) inserted into the hippocampal CA1 region opposite to the site where a microdialysis probe had been fixed. The blood flow during BCAO was estimated as almost negligible on the assumption that the blood flow after the death of rat is "0".
S-312-d (0.3 mg/kg), nilvadipine (3 mg/kg), or nimodipine (3 mg/kg) was dissolved into polyethylene glycol 400 and administered into duodenum in each rat at 40 min before BCAO.
Under the anesthesia with halothane (1-2%), rats were fixed on cerebral stereotaxic frame and equipped with an artificial respirator (1 cc/100 gbw×60 times/min), while being maintained at 37 ° C by settling a heating pad beneath the lower abdominal region. A hole was drilled on the exposed skull and a microdialysis probe (CMA/10, membrane length 2 mm, BAS, Sweden) was inserted gently. Measurement was started after 3 hr from the surgery in order to avoid the influence of tissue damage. The probe was perfused with Ringer's solution at a flow rate of 2 μl/min by a microdialysis pump (CMA/100, BAS, Sweden). The dialysates were collected for each 5-min perfusion and pooled. Sampling was started at 10 min before the BCAO. BCAO was continued for 20 min when it was stopped by loosening […] threads to allow cerebral circulation. The sampling was continued for 20 min after the discontinuation of the BCAO. Samples were then subjected to quantitative analysis for glutamate without further treatments.
The concentration of glutamate was determined by HPLC substantial in accordance with the HPLC-ECD method of Donzanti et al. (Life Sci. 43: 913 (1988)) The glutamate-containing sample was reacted with o-phthlaldehyde/β-mercaptoethanol solution for 2 min and injected into a reverse-phase column and eluted under the following conditions. The eluate was then analyzed for the presence of glutamate by an electrochemical measurement of oxidation-reduction current.
Column: C 18, particle size: 3 μm, 8 cm×4.6 mm
Mobile phase: a mixture of 0.1M phosphate buffer (pH 6.4), 0.13 mM Na2 EDTA, and 22% MeOH

[5] = cited from earlier work; for antihypertensive, peripheral, cerebral and coronary vasodilating actions: background statement
[6] = tested on: vascular smooth muscle; settings: background statement; cited from earlier work
[7] = tested on: pyramidal neurons of the hippocampal CAI region; test: Delayed neuronal death during cerebral ischemia (density of living pyramidal neurons); type: in vivo, rat (SHRSP); settings: for Density of Neurons, animals with 40-80 n/mm / Density of Neurons, animals with 80-120 n/mm / Density of Neurons, animals with <40 n/mm / Density of Neurons, animals with >120 n/mm: 7th day; for Density of Neurons, mean ± S.E.M: normal 160 ± 9, control 69 ± 10
Description: Animal: eight to twelve (n=8-12) male SHRSP bred at the Aburahi Laboratories (Shionogi) were used in a group. Animals were fed CA-1 (Nihon Clea) and tap water ad libitum.
S-312-d was dissolved into polyethylene glycol 400 solution and intraperitoneally administered to a SHRSP at 60 min before the introduction of a global cerebral ischemia. Cerebral ischemia was then caused in each rat for 20 min and stopped to allow cerebral circulation in the same manner as the above Experiment 1. For the histological observation on the delayed neuronal death, a fixation of tissue was conducted by perfusing the animal from the left ventricle using 4% paraformaldehyde at a flow rate of 10 ml/min by means of perista pump (AC-2110, ATTA) on the 7th day from the ischemia. After the removal of brain, cerebral region containing hippocampus was embedded in paraffin, from which sliced preparations of 4 μm thick were prepared. Each cerebral preparation was stained with hematoxylin-eosin and the density of the living pyramidal neurons (n/mm) was determined by counting the number of neurons per 1 mm length of the hippocampal CAI region under a light microscope. The data were expressed as the mean ±S.E.M. For the purpose of comparison, SHRSPs with or without ischemic maneuvering were both treated with propylene glycol, in exactly the same manner as the above.

[8] = oral, one hour before ultrasonic treatment
[9] = treated group (I), 0.01 mg/kg i.p. 60 min before ischemia (20 min), n = 12
[10] = treated group (II), 0.1 mg/kg i.p. 60 min before ischemia (20 min), n = 13

## COC(=O)C1=C(C)Nc2scc(CC(C)C)c2[C@@H]1c1cccc([N+](=O)[O-])c1 [S-312-1, methyl (-)-(4R)-4,7-dihydro-3-isobutyl-6-methyl-4-(3-nitrophenyl)thieno[2,3-b]pyridine-5-carboxylate]
[1]; oral, 10-80 mg/kg, one hour before ultrasonic treatment
  Anticonvulsive effect (maximum), at 10-80 mg/kg: 30%
[1]; [8]
  anticonvulsive effect (general statement): less than 40%

## COC(=O)C1=C(C)NC(C)=C(C(=O)OCCN(C)Cc2ccccc2)C1c1cccc([N+](=O)[O-])c1 (stereo not shown) [Nicardipine]
[1]; [8]
  Anticonvulsive effect (maximum), at 20-80 mg/kg: 30%
  anticonvulsive effect (general statement): less than 40%

## NCC(CC(=O)O)c1ccc(Cl)cc1 (stereo not shown) [Baclofen]
[2]
  effect on ischemic release of glutamate: not the ischemic release
  effect on normal release of glutamate: inhibit the normal glutamate release
[2]; listed as baclofen
  effect on normal release of glutamate: inhibits the normal release

## C[C@]12N[C@H](Cc3ccccc31)c1ccccc12 [MK-801]
[3]
  toxic effects / clinical applicability: not clinically applicable because of serious toxic effects

## COCCOC(=O)C1=C(C)NC(C)=C(C(=O)OC(C)C)C1c1cccc([N+](=O)[O-])c1 (stereo not shown) [Nimodipine, reference compound]
[4]
  inhibition of the massive release of glutamate during BCAO: only S-312-d was significantly effective; also recorded: neither nilvadipine nor nimodipine shows significant effect
[1]; [8]
  Anticonvulsive effect (maximum), at 20-80 mg/kg: 40%
  anticonvulsive effect (general statement): less than 40%

## Fc1ccc(C(c2ccc(F)cc2)N2CCN(C/C=C/c3ccccc3)CC2)cc1 [Flunarizine]
[1]; oral
  ED50: 48.1 mg/kg
[1]
  anti-convulsant effect, in words: dose-dependent anti-convulsant effect

## COC(=O)C1=C(C#N)NC(C)=C(C(=O)OC(C)C)C1c1cccc([N+](=O)[O-])c1 (stereo not shown) [nilvadipine, reference compound]
[4]
  inhibition of the massive release of glutamate during BCAO: only S-312-d was significantly effective; also recorded: neither nilvadipine nor nimodipine shows significant effect

## COC(=O)C1=C(C)Nc2scc(CC(C)C)c2C1c1cccc([N+](=O)[O-])c1 (racemic) [S-312, methyl 4,7-dihydro-3-isobutyl-6-methyl-4-(3-nitrophenyl)thieno[2,3-b]pyridine-5-carboxylate]
[5]; U.S. Pat. No. 4,703,051
  adverse reactions: lesser adverse reactions
  vasodilating, antihypertensive and coronary vasodilating effect: potent antihypertensive and coronary vasodilating effect
[5]
  antihypertensive, peripheral, cerebral and coronary vasodilating actions: exhibit antihypertensive activity, as well as peripheral, cerebral, and coronary vasodilating actions
[6]
  Ca-blocking effect on vascular smooth muscle: selective Ca-blocking effect on vascular smooth muscle

## COC(=O)C1=C(C)Nc2scc(CC(C)C)c2[C@H]1c1cccc([N+](=O)[O-])c1 [S-312-d, methyl (+)-(4S)-4,7-dihydro-3-isobutyl-6-methyl-4-(3-nitrophenyl)thieno[2,3-b]pyridine-5-carboxylate]
[4]
  effect on the normal resting release of glutamate: not the normal resting release; also recorded: without affecting the normal resting release of glutamate; also recorded: not the normal cerebral release of glutamate
  inhibition of the massive release of glutamate during BCAO: only S-312-d was significantly effective; also recorded: inhibited the massive release of glutamate during BCAO; also recorded: inhibits specifically the massive release of glutamate during cerebral ischemia; also recorded: inhibiting specifically a massive release of cerebral glutamate from hippocampus
[4]; listed as S-312-2
  inhibition of the massive release of glutamate during BCAO: the massive release of cerebral glutamate
[1]; oral
  ED50: 17.6 mg/kg
[1]
  anti-convulsant effect, in words: inhibits sound-induced convulsion in DBA/2 mouse; also recorded: dose-dependent anti-convulsant effect; also recorded: potent inhibitory effect on a convulsion induced by sound stimulation in DBA/2 mice
[1]; listed as S-312-2
  anti-convulsant effect, in words: inhibit the both of a) the sound-induced convulsion
[7]; pretreatment i.p., Table 2
  protection of cerebral neurons against ischemic necrosis: significantly effective for the protection of cerebral neurons against ischemic necrosis of cells
[7]; [9]
  Density of Neurons, animals with 40-80 n/mm: 4
  Density of Neurons, animals with 80-120 n/mm: 2
  Density of Neurons, animals with <40 n/mm: 3
  Density of Neurons, animals with >120 n/mm: 3
[7]; treated group (I), 0.01 mg/kg i.p., n = 12, p < 0.01 vs normal group
  Density of Neurons, mean ± S.E.M: 73 ± 12 n/mm
[7]; [10]
  Density of Neurons, animals with 40-80 n/mm: 1
  Density of Neurons, animals with 80-120 n/mm: 4
  Density of Neurons, animals with <40 n/mm: 2
  Density of Neurons, animals with >120 n/mm: 6
[7]; treated group (II), 0.1 mg/kg i.p., n = 13, p < 0.01 vs control group
  Density of Neurons, mean ± S.E.M: 114 ± 17 n/mm
[5]
  antihypertensive, peripheral, cerebral and coronary vasodilating actions: exhibit antihypertensive activity, as well as peripheral, cerebral, and coronary vasodilating actions
[6]
  Ca-blocking effect on vascular smooth muscle: selective Ca-blocking effect on vascular smooth muscle
